Target: T1, human EGF-R (Homo sapiens, UniProt P00533)
T1 construct: expressed in transfected cells; host or cells: F/L-HERc cells (murine IL-3-dependent FDC-P1 line transduced with LXSN retroviral vector carrying human EGF-R cDNA; packaging line GP+E86)
Test: Inhibition of the EGF-dependent proliferation of F/L-HERc cells (Cell Titer 96 proliferation assay)
Assay type: cell-based
Details: F/L-HERc cells (murine IL-3-dependent line expressing human EGF-R), stimulated with EGF 20 ng/ml, 48 hours at 37° C.
Text: A cell line of murine origin dependent on interleukin-3-(IL-3) which was genetically modified to express functional human EGF-R was used here. The proliferation of these cells known as F/L-HERc can therefore be stimulated either by murine IL-3 or by EGF (cf. von Rüden, T. et al. in EMBO J. 7, 2749-2756 (1988) and Pierce, J. H. et al. in Science 239, 628-631 (1988)).
The starting material used for the F/L-HERc cells was the cell line FDC-P1, the production of which has been described by Dexter, T. M. et al. in J. Exp. Med. 152, 1036-1047 (1980). Alternatively, however, other growth-factor-dependent cells may also be used (cf. for example Pierce, J. H. et al. in Science 239, 628-631 (1988), Shibuya, H. et al. in Cell 70, 57-67 (1992) and Alexander, W. S. et al. in EMBO J. 10, 3683-3691 (1991)). […]
In order to determine the inhibitory activity of the compounds according to the invention the relative cell number was measured in O.D. units using the Cell Titer 96™ Aqueous Non-Radioactive Cell Proliferation Assay (Promega). […]

T1 sequence (P00533 25-1210): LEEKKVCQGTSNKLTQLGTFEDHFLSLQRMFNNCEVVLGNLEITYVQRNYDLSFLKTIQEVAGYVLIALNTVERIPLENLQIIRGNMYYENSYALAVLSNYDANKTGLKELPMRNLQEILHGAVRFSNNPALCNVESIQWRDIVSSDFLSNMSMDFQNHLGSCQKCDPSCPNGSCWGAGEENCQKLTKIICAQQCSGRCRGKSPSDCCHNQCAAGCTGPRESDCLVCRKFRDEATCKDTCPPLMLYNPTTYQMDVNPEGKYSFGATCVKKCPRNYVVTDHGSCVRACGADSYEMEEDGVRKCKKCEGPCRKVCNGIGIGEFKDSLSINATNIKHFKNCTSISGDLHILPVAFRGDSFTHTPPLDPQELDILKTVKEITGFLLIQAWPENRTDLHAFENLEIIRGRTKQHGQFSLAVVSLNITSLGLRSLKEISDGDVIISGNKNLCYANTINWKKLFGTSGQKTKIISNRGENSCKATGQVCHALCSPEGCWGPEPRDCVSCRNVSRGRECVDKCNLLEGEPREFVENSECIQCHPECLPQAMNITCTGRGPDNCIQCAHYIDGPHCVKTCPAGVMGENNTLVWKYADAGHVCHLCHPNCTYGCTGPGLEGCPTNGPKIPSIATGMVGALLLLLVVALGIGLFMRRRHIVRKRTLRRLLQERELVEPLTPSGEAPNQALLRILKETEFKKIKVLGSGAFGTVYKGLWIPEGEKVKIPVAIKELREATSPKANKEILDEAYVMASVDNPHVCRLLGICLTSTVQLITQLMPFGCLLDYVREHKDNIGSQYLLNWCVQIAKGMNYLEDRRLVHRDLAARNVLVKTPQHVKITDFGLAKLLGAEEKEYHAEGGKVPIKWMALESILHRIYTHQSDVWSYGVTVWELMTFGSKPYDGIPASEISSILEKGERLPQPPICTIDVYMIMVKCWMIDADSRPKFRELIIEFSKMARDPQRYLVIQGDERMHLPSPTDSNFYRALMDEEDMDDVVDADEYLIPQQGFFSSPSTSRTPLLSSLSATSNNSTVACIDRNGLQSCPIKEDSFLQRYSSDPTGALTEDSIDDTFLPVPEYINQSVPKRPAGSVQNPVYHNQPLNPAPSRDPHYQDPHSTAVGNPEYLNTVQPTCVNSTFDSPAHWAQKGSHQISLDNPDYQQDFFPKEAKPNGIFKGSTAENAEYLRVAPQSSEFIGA

IC50: 2 nM
Structure (SMILES): COC[C@H]1CN(CC=CC(=O)Nc2cc3c(Nc4ccc(F)c(Cl)c4)ncnc3cc2OCC2CC2)CC(=O)O1 [Example 1, 4-[(3-chloro-4-fluoro-phenyl)amino]-6-{[4-((R)-2-methoxymethyl-6-oxo-morpholin-4-yl)-1-oxo-2-buten-1-yl]amino}-7-cyclopropylmethoxy-quinazoline]

— patent publication US6740651B2, “Aminoquinazolines which inhibit signal transduction mediated by tyrosine kinases” (Boehringer Ingelheim Pharma KG, priority 2000, dated 2004)
